pIC50: −log10 of the molar value. In brackets after ≈: the same amount, converted by molar mass. Each block holds one compound with its values, some of them ahead of it.
Tests used:
[1] = biological target: T1, Cholesteryl ester transfer protein (Homo sapiens) (UniProt P11597); experiment: Inhibition of human cholesteryl ester transfer protein at 1 uM by scintillation proximity assay
T1 sequence (whole entry): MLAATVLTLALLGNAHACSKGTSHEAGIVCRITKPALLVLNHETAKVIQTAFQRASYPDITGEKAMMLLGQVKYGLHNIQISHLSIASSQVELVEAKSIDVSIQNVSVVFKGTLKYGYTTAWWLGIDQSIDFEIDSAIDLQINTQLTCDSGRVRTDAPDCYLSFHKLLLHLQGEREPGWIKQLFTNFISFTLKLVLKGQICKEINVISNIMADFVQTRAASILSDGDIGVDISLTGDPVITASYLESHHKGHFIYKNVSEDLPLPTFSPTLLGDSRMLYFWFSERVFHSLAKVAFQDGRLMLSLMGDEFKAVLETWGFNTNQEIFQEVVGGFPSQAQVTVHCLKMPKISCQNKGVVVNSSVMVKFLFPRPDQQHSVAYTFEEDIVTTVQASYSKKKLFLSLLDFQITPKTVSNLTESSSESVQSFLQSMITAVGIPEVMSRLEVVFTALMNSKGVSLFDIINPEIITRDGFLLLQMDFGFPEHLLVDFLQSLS

[2] = Half life in human liver microsomes; format: ADME, Microsome
Cytochrome P450 2D6 = Cytochrome P450 2D6 (Homo sapiens, UniProt P10635); experiment: Inhibition of CYP2D6 in human liver microsomes; format: ADME, Microsome
Sequence of Cytochrome P450 2D6 (P10635 whole entry): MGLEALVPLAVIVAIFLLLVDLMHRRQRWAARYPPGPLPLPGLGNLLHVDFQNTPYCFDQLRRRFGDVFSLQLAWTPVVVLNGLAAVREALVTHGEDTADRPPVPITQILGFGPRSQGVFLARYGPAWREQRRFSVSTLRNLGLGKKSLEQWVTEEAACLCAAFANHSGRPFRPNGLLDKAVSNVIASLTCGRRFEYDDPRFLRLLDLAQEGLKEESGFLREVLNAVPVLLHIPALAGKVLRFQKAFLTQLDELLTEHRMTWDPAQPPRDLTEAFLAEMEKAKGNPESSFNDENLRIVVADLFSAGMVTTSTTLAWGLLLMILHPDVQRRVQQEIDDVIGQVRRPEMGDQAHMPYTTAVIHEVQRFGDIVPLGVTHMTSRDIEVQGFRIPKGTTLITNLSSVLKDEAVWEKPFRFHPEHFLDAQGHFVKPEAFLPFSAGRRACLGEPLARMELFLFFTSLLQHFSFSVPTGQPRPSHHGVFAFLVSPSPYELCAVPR

[3] = biological target: T2, Cholesteryl ester transfer protein (Homo sapiens, UniProt P11597); experiment: Inhibition of cholesteryl ester transfer protein in human plasma by [3H]CE HDL assay; format: cell-free
T2 sequence (P11597 whole entry): T1 sequence (whole entry)

Cytochrome P450 1A2 = biological target: T3, Cytochrome P450 1A2 (Homo sapiens, UniProt P05177); experiment: Inhibition of CYP1A2 in human liver microsomes; format: ADME, Microsome
T3 sequence (P05177 whole entry): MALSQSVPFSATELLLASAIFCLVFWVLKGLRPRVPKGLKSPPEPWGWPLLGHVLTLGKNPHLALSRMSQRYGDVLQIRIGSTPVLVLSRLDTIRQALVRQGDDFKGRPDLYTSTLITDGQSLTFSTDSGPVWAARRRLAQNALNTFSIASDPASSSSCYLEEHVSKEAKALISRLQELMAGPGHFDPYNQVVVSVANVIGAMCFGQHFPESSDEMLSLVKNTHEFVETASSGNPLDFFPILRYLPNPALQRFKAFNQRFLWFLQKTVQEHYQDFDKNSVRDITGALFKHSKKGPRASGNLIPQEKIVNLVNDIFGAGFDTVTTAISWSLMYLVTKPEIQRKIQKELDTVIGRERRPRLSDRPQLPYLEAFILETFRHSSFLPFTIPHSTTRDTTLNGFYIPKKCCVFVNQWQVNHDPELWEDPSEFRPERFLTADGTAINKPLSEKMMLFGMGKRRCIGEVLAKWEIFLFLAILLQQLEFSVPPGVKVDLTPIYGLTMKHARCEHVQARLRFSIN

Cytochrome P450 2C9 = Cytochrome P450 2C9 (Homo sapiens, UniProt P11712); experiment: Inhibition of CYP2C9 in human liver microsomes; format: ADME, Microsome
Sequence of Cytochrome P450 2C9 (P11712 whole entry): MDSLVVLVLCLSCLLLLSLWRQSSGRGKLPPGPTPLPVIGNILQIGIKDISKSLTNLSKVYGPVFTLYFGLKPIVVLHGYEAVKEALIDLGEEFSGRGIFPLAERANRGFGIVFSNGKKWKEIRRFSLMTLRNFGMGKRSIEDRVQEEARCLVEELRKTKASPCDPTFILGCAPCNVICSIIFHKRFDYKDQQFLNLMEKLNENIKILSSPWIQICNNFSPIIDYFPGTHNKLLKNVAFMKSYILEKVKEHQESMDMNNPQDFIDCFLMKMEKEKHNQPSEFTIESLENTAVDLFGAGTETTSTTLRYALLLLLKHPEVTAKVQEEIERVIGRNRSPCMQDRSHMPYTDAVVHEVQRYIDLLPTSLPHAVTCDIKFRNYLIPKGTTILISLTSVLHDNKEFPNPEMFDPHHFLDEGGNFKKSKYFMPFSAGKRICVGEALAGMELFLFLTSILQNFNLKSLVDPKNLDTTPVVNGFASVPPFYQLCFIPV

Cytochrome P450 2C19 = Cytochrome P450 2C19 (Homo sapiens, UniProt P33261); experiment: Inhibition of CYP2C19 in human liver microsomes; format: ADME, Microsome
Sequence of Cytochrome P450 2C19 (P33261 whole entry, canonical isoform): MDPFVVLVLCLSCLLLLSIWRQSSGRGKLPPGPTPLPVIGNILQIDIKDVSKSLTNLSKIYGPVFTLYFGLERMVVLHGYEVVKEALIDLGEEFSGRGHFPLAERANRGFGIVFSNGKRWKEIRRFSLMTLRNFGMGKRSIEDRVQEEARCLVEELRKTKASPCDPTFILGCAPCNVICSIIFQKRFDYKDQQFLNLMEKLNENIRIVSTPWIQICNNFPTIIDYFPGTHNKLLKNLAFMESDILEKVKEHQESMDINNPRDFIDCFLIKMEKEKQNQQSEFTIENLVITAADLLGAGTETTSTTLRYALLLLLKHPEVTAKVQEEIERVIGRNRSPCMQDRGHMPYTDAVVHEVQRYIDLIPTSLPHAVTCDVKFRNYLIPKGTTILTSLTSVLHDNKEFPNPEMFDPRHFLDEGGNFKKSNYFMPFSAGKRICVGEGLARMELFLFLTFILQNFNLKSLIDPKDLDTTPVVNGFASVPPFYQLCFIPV

Cytochrome P450 3A4 [4] = biological target: T4, Cytochrome P450 3A4 (Homo sapiens, UniProt P08684); experiment: Inhibition of CYP3A4 […] isoform in human liver microsomes; format: ADME, Microsome
T4 sequence (P08684 whole entry, canonical isoform): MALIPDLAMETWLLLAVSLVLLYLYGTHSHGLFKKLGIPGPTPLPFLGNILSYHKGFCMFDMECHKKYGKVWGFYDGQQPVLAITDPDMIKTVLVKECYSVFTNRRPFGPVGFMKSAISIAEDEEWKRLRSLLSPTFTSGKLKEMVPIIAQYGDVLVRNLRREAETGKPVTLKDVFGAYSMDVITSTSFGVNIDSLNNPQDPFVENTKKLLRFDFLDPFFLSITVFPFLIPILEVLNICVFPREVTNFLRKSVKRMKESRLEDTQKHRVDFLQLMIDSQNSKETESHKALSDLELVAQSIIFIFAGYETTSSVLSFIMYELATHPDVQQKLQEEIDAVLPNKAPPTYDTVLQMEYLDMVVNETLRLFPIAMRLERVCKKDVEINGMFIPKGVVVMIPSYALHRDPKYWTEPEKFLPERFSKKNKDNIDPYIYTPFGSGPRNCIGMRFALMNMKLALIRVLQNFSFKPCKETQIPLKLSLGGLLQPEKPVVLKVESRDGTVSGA

Cytochrome P450 3A4 [5] = biological target: T4, Cytochrome P450 3A4; experiment: Inhibition of CYP3A4 tissue isoform in human liver microsomes; format: ADME, Microsome
[6] = Oral bioavailability in rat at 10 mg/kg; format: ADME, organism-based; conditions: in vivo
[7] = AUC in rat at 10 mg/kg, po and 2 mg/kg, iv; format: ADME, organism-based; conditions: plasma
[8] = Tmax in rat at 10 mg/kg, po and 2 mg/kg, iv; format: ADME, organism-based; conditions: in vivo
[9] = Clearance in rat at 10 mg/kg, po and 2 mg/kg, iv; format: ADME, organism-based; conditions: in vivo
[10] = Volume of distribution at steady state in rat at 10 mg/kg, po and 2 mg/kg, iv; format: ADME, organism-based; conditions: in vivo, read-out: Vdss
Mus musculus [11] = experiment: Increase in HDL cholesterol level in normal chow diet fed female CETP transgenic mouse at 3 mg/kg, po after 5 days; format: functional
Mus musculus [12] = experiment: Increase in HDL cholesterol level in normal chow diet fed female CETP transgenic mouse at 10 mg/kg, po after 5 days; format: functional
Mus musculus [13] = experiment: Increase in HDL cholesterol level in normal chow diet fed female CETP transgenic mouse at 30 mg/kg, po after 5 days; format: functional
Mus musculus [14] = experiment: Increase in HDL cholesterol level in normal chow diet fed male CETP transgenic mouse at 3 mg/kg, po after 5 days; format: functional
Mus musculus [15] = experiment: Increase in HDL cholesterol level in normal chow diet fed male CETP transgenic mouse at 10 mg/kg, po after 5 days; format: functional
Mus musculus [16] = experiment: Increase in HDL cholesterol level in normal chow diet fed male CETP transgenic mouse at 30 mg/kg, po after 5 days; format: functional
Hamster [17] = experiment: Increase in HDL cholesterol level in high fat diet fed hamster at 10 mg/kg, po after 5 days; format: functional, Cricetinae
Hamster [18] = experiment: Increase in HDL cholesterol level in high fat diet fed hamster at 30 mg/kg, po after 5 days; format: functional, Cricetinae
[19] = Aqueous solubility at pH 2.0; format: physicochemical; conditions: aqueous medium
[20] = Aqueous solubility at pH 7.4; format: physicochemical; conditions: aqueous medium
[21] = biological target: T2, Cholesteryl ester transfer protein; experiment: Inhibition of human cholesteryl ester transfer protein by scintillation proximity assay

inhibition [1]: 29%
Compound: COc1cccc(C2COc3c(-c4cccc(OC(F)(F)F)c4)cccc3N2CC(O)C(F)(F)F)c1 (mixture of isomers)

inhibition [1]: 16%
Compound: COC(=O)N1c2cccc(-c3cccc(OC(F)(F)F)c3)c2OCC1c1cccc(OC(F)(F)C(F)F)c1 (racemic)

inhibition [1]: 100%
Compound: O[C@@H](CN1c2cccc(-c3cc(F)cc(F)c3)c2OC[C@@H]1c1cccc(OC(F)(F)C(F)F)c1)C(F)(F)F

inhibition [1]: 91%
half-life [2]: 1.03 h
pIC50 (Cytochrome P450 2D6): < 4.00
pIC50 [3]: 6.00
pIC50 (Cytochrome P450 1A2): < 4.00
pIC50 (Cytochrome P450 2C9): < 4.00
pIC50 (Cytochrome P450 2C19): < 4.00
pIC50 (Cytochrome P450 3A4 [4]): < 4.00
pIC50 (Cytochrome P450 3A4 [5]): < 4.00
bioavailability [6]: 53%
AUC [7]: 19800 ng·h/mL
Tmax [8]: 11.5 h
clearance [9]: 4.6 mL/min/kg
Vd [10]: 0.73 L/kg
solubility [19]: 11 µg/mL (≈ 18.4 µM)
solubility [20]: 2.7 µg/mL (≈ 4.5 µM)
Compound: O[C@@H](CN1c2cccc(-c3cccc(OC(F)(F)F)c3)c2OC[C@@H]1c1cccc(OC(F)(F)C(F)F)c1)C(F)(F)F
Activity (Mus musculus [11]): 4%
Activity (Mus musculus [12]): 8%
Activity (Mus musculus [13]): 24%
Activity (Mus musculus [14]): 11%
Activity (Mus musculus [15]): 10%
Activity (Mus musculus [16]): 28%
Activity (Hamster [17]): 9%
Activity (Hamster [18]): 16%

inhibition [1]: 28%
Compound: C[C@@H](O)CN1c2cccc(-c3cccc(OC(F)(F)F)c3)c2OC[C@@H]1c1cccc(OC(F)(F)C(F)F)c1

inhibition [1]: 26%
Compound: O[C@H](CN1c2cccc(-c3cccc(OC(F)(F)F)c3)c2OC[C@H]1c1cccc(OC(F)(F)C(F)F)c1)C(F)(F)F

inhibition [1]: 6%
Compound: OC(CN1c2cccc(-c3cccc(OC(F)(F)F)c3)c2OCC1c1ccccc1OC(F)(F)C(F)F)C(F)(F)F (mixture of isomers)

inhibition [1]: 5%
Compound: CC(=O)CN1c2cccc(-c3cccc(OC(F)(F)F)c3)c2OC[C@@H]1c1cccc(OC(F)(F)C(F)F)c1

inhibition [1]: 14%
Compound: O[C@@H](CN1c2cccc(-c3cccc(OC(F)(F)F)c3)c2OC[C@H]1c1cccc(OC(F)(F)C(F)F)c1)C(F)(F)F

pIC50 [21]: 6.57
inhibition [1]: 48%
Compound: OC(CN1c2cccc(-c3cccc(OC(F)(F)F)c3)c2OCC1c1ccc2c(c1)OC(F)(F)O2)C(F)(F)F (mixture of isomers)

inhibition [1]: 38%
Compound: OC(CN1c2cccc(-c3cccc(OC(F)(F)F)c3)c2OCC1c1ccc(OC(F)(F)F)cc1)C(F)(F)F (mixture of isomers)

pIC50 [21]: 6.97
inhibition [1]: 65%
Compound: OC(CN1c2cccc(-c3cccc(OC(F)(F)F)c3)c2OCC1c1cccc(OC(F)(F)F)c1)C(F)(F)F (mixture of isomers)

pIC50 [21]: 6.88
inhibition [1]: 69%
Compound: O[C@@H](CN1c2cccc(-c3cccc(OC(F)(F)F)c3)c2OC[C@@H]1c1cccc(OC(F)(F)F)c1)C(F)(F)F

inhibition [1]: 33%
Compound: OC(CN1c2cccc(-c3cccc(OC(F)(F)F)c3)c2OCC1c1ccc(OC(F)(F)C(F)F)cc1)C(F)(F)F (mixture of isomers)

inhibition [1]: 23%
Compound: O[C@H](CN1c2cccc(-c3cccc(OC(F)(F)F)c3)c2OC[C@@H]1c1cccc(OC(F)(F)C(F)F)c1)C(F)(F)F

inhibition [1]: 10%
Compound: OCCCN1c2cccc(-c3cccc(OC(F)(F)F)c3)c2OCC1c1cccc(OC(F)(F)C(F)F)c1 (racemic)

inhibition [1]: 94%
Compound: O[C@@H](CN1c2cccc(-c3cc(F)c(F)c(F)c3)c2OC[C@@H]1c1cccc(OC(F)(F)F)c1)C(F)(F)F

inhibition [1]: 37%
Compound: OC(CN1c2cccc(-c3cccc(OC(F)(F)F)c3)c2OCC1c1cccc(C(F)(F)F)c1)C(F)(F)F (mixture of isomers)

inhibition [1]: 68%
Compound: OC(CN1c2cccc(-c3cccc(OC(F)(F)F)c3)c2OCC1c1cccc(SC(F)(F)F)c1)C(F)(F)F (mixture of isomers)

inhibition [1]: 25%
Compound: COCCN1c2cccc(-c3cccc(OC(F)(F)F)c3)c2OCC1c1cccc(OC(F)(F)C(F)F)c1 (racemic)

inhibition [1]: 5%
Compound: O=C(CN1c2cccc(-c3cccc(OC(F)(F)F)c3)c2OC[C@@H]1c1cccc(OC(F)(F)C(F)F)c1)C(F)(F)F

inhibition [1]: 55%
Compound: O[C@@H](CF)CN1c2cccc(-c3cccc(OC(F)(F)F)c3)c2OC[C@@H]1c1cccc(OC(F)(F)C(F)F)c1
